Assay results taken from PubChem BioAssay (NCI).
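96-well plates; 48 h exposure; 5 concentrations. Endpoints by linear interpolation between flanking doses. Not reached: highest tested concentration assigned. TGI: concentration producing complete growth inhibition.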

Tests used:
Assay in all cases: growth of human tumour cells (NCI), 48 h
SF-268 CNS = tested on: SF-268 CNS
HCC-2998 colon = tested on: HCC-2998 colon
NCI-H460 lung = tested on: NCI-H460 lung
HCT-116 colon = tested on: HCT-116 colon
UACC-257 melanoma = tested on: UACC-257 melanoma
HOP-62 NSCLC = tested on: HOP-62 NSCLC
LOX IMVI melanoma = tested on: LOX IMVI melanoma
M14 melanoma = tested on: M14 melanoma
DLD-1 colon = tested on: DLD-1 colon
SF-295 CNS = tested on: SF-295 CNS
SK-OV-3 ovarian = tested on: SK-OV-3 ovarian
DMS 114 small cell lung = tested on: DMS 114 small cell lung
NCI-H226 lung = tested on: NCI-H226 lung
KM20L2 colon = tested on: KM20L2 colon
OVCAR-3 ovarian = tested on: OVCAR-3 ovarian
SK-MEL-5 melanoma = tested on: SK-MEL-5 melanoma
RPMI-8226 leukemia = tested on: RPMI-8226 leukemia
TK-10 renal = tested on: TK-10 renal
A549 NSCLC = tested on: A549 NSCLC
SF-539 CNS = tested on: SF-539 CNS

Structure (SMILES) | TGI (SF-268 CNS) | TGI (HCC-2998 colon) | TGI (NCI-H460 lung) | TGI (HCT-116 colon) | TGI (UACC-257 melanoma) | TGI (HOP-62 NSCLC) | TGI (LOX IMVI melanoma) | TGI (M14 melanoma) | TGI (DLD-1 colon) | TGI (SF-295 CNS) | TGI (SK-OV-3 ovarian) | TGI (DMS 114 small cell lung) | TGI (NCI-H226 lung) | TGI (KM20L2 colon) | TGI (OVCAR-3 ovarian) | TGI (SK-MEL-5 melanoma) | TGI (RPMI-8226 leukemia) | TGI (TK-10 renal) | TGI (A549 NSCLC) | TGI (SF-539 CNS)
Cc1ccc(NC(=O)CC/C(CC(=O)C(C)(C)C)=N/NC(=O)c2cc3ccccc3cc2O)cc1C | > 100 µM | 55 µM | > 100 µM | > 100 µM | > 100 µM | > 100 µM | 62.9 µM | 96 µM | > 100 µM | > 100 µM | > 100 µM | > 100 µM | > 100 µM | > 100 µM | > 100 µM |  |  |  |  | 
CCC12CCC[C@@]13C=C[C@H](O3)C(C)(C)C2=O (some centres not stated) | > 100 µM | > 100 µM | > 100 µM | > 100 µM | > 100 µM | > 100 µM | > 100 µM | > 100 µM | > 100 µM | > 100 µM | > 100 µM | > 100 µM | > 100 µM | > 100 µM | > 100 µM | > 100 µM | > 100 µM | > 100 µM | > 100 µM | > 100 µM
CC1(C)N=C(/C(Cl)=[N+](/[O-])C(=O)c2ccc(Cl)cc2)C(C)(C)N1O | 89.2 µM | 63 µM | > 100 µM | 32.5 µM | 38.1 µM | > 100 µM | 20.4 µM | 32.1 µM |  | > 100 µM | > 100 µM |  | 72.6 µM |  | 32.4 µM | 43.2 µM | 72.6 µM | 38.8 µM | > 100 µM | 44 µM
